Assay results taken from PubChem BioAssay (NCI).
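48-hour exposure; five concentrations; linearly interpolated endpoints. TGI denotes the concentration required for complete inhibition of growth.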

Assays:
Test in all cases: NCI anticancer screen, dose series, 48 h
M14 melanoma = system: M14 melanoma
HOP-92 NSCLC = system: HOP-92 NSCLC
DU-145 prostate = system: DU-145 prostate
SF-268 CNS = system: SF-268 CNS
EKVX NSCLC = system: EKVX NSCLC
SNB-75 CNS = system: SNB-75 CNS
OVCAR-3 ovarian = system: OVCAR-3 ovarian
LOX IMVI melanoma = system: LOX IMVI melanoma
OVCAR-4 ovarian = system: OVCAR-4 ovarian
K-562 leukemia = system: K-562 leukemia
HS 578T breast = system: HS 578T breast
OVCAR-8 ovarian = system: OVCAR-8 ovarian
IGROV1 ovarian = system: IGROV1 ovarian
KM12 colon = system: KM12 colon
786-0 renal = system: 786-0 renal
MDA-MB-231 breast = system: MDA-MB-231 breast
HCT-116 colon = system: HCT-116 colon
MALME-3M melanoma = system: MALME-3M melanoma
PC-3 prostate = system: PC-3 prostate
MDA-N = system: MDA-N
SR leukemia = system: SR leukemia
HL-60(TB) leukemia = system: HL-60(TB) leukemia
A498 renal = system: A498 renal
MDA-MB-435 = system: MDA-MB-435
RXF 393 renal = system: RXF 393 renal
UACC-257 melanoma = system: UACC-257 melanoma
U251 CNS = system: U251 CNS
NCI-H226 lung = system: NCI-H226 lung
HT29 colon = system: HT29 colon
SW-620 colon = system: SW-620 colon
SK-MEL-2 melanoma = system: SK-MEL-2 melanoma
COLO 205 colon = system: COLO 205 colon
MOLT-4 leukemia = system: MOLT-4 leukemia
SK-OV-3 ovarian = system: SK-OV-3 ovarian
NCI-H522 lung = system: NCI-H522 lung
SF-295 CNS = system: SF-295 CNS
SK-MEL-28 melanoma = system: SK-MEL-28 melanoma
UO-31 renal = system: UO-31 renal
A549 NSCLC = system: A549 NSCLC
CAKI-1 renal = system: CAKI-1 renal
CCRF-CEM leukemia = system: CCRF-CEM leukemia
ACHN renal = system: ACHN renal
TK-10 renal = system: TK-10 renal
T-47D breast = system: T-47D breast
SK-MEL-5 melanoma = system: SK-MEL-5 melanoma
SN12C renal = system: SN12C renal
RPMI-8226 leukemia = system: RPMI-8226 leukemia
MCF7 breast = system: MCF7 breast
OVCAR-5 ovarian = system: OVCAR-5 ovarian
SNB-19 CNS = system: SNB-19 CNS
HOP-62 NSCLC = system: HOP-62 NSCLC
UACC-62 melanoma = system: UACC-62 melanoma
BT-549 breast = system: BT-549 breast
HCC-2998 colon = system: HCC-2998 colon
SF-539 CNS = system: SF-539 CNS
NCI-H23 lung = system: NCI-H23 lung
NCI/ADR-RES ovarian = system: NCI/ADR-RES ovarian
NCI-H460 lung = system: NCI-H460 lung
HCT-15 colon = system: HCT-15 colon

COc1ccc(C[N+]23C(CC[C@H]2c2ccccc2)CC[C@H]3c2ccccc2)cc1 (some centres undefined)
TGI (M14 melanoma): 42.4 µM
TGI (HOP-92 NSCLC): 39.5 µM
TGI (DU-145 prostate): 77.8 µM
TGI (SF-268 CNS): > 100 µM
TGI (EKVX NSCLC): 69.8 µM
TGI (SNB-75 CNS): 54.1 µM
TGI (OVCAR-3 ovarian): 37 µM
TGI (LOX IMVI melanoma): 44.7 µM
TGI (OVCAR-4 ovarian): 84.1 µM
TGI (K-562 leukemia): > 100 µM
TGI (HS 578T breast): > 100 µM
TGI (OVCAR-8 ovarian): > 100 µM
TGI (IGROV1 ovarian): 36.5 µM
TGI (KM12 colon): 24.4 µM
TGI (786-0 renal): > 100 µM
TGI (MDA-MB-231 breast): 82.4 µM
TGI (HCT-116 colon): > 100 µM
TGI (MALME-3M melanoma): 30.8 µM
TGI (PC-3 prostate): 92.1 µM
TGI (MDA-N): 65.4 µM
TGI (SR leukemia): 41.4 µM
TGI (HL-60(TB) leukemia): 24.7 µM
TGI (A498 renal): > 100 µM
TGI (MDA-MB-435): 26.4 µM
TGI (RXF 393 renal): 35.3 µM
TGI (UACC-257 melanoma): 50.5 µM
TGI (U251 CNS): > 100 µM
TGI (NCI-H226 lung): 55 µM
TGI (HT29 colon): > 100 µM
TGI (SW-620 colon): > 100 µM
TGI (SK-MEL-2 melanoma): 43 µM
TGI (COLO 205 colon): 21.4 µM
TGI (MOLT-4 leukemia): 90.1 µM
TGI (SK-OV-3 ovarian): 87.7 µM
TGI (NCI-H522 lung): 45.4 µM
TGI (SF-295 CNS): 61.7 µM
TGI (SK-MEL-28 melanoma): > 100 µM
TGI (UO-31 renal): > 100 µM
TGI (A549 NSCLC): > 100 µM
TGI (CAKI-1 renal): > 100 µM
TGI (CCRF-CEM leukemia): > 100 µM
TGI (ACHN renal): > 100 µM
TGI (TK-10 renal): > 100 µM
TGI (T-47D breast): 61.5 µM
TGI (SK-MEL-5 melanoma): 15.7 µM
TGI (SN12C renal): > 100 µM
TGI (RPMI-8226 leukemia): 27 µM
TGI (MCF7 breast): 78.9 µM
TGI (OVCAR-5 ovarian): > 100 µM
TGI (SNB-19 CNS): > 100 µM
TGI (HOP-62 NSCLC): 67.3 µM

CCOC(=O)C1(C(=O)OCC)CN(CC)CN(c2ccccc2)C1
TGI (M14 melanoma): 39.1 µM
TGI (HOP-92 NSCLC): 33.3 µM
TGI (DU-145 prostate): 91.7 µM
TGI (SF-268 CNS): > 100 µM
TGI (EKVX NSCLC): 34 µM
TGI (SNB-75 CNS): 39.3 µM
TGI (OVCAR-3 ovarian): 33.5 µM
TGI (LOX IMVI melanoma): > 100 µM
TGI (OVCAR-4 ovarian): 49.1 µM
TGI (K-562 leukemia): > 100 µM
TGI (HS 578T breast): > 100 µM
TGI (OVCAR-8 ovarian): 47.4 µM
TGI (IGROV1 ovarian): 39.8 µM
TGI (KM12 colon): > 100 µM
TGI (786-0 renal): 35.2 µM
TGI (UACC-62 melanoma): 68.5 µM
TGI (HCT-116 colon): > 100 µM
TGI (MALME-3M melanoma): 69.2 µM
TGI (BT-549 breast): 86.6 µM
TGI (MDA-N): 87.9 µM
TGI (SR leukemia): 47.7 µM
TGI (HL-60(TB) leukemia): 50.1 µM
TGI (A498 renal): > 100 µM
TGI (MDA-MB-435): 37.3 µM
TGI (RXF 393 renal): 31.7 µM
TGI (HCC-2998 colon): 28.9 µM
TGI (UACC-257 melanoma): 31.1 µM
TGI (SF-539 CNS): 41.2 µM
TGI (HT29 colon): 37.8 µM
TGI (SW-620 colon): > 100 µM
TGI (COLO 205 colon): 34.8 µM
TGI (MOLT-4 leukemia): 40.4 µM
TGI (SK-OV-3 ovarian): > 100 µM
TGI (NCI-H522 lung): 56.1 µM
TGI (SF-295 CNS): > 100 µM
TGI (SK-MEL-28 melanoma): 38.8 µM
TGI (NCI-H23 lung): 39 µM
TGI (UO-31 renal): 46.6 µM
TGI (A549 NSCLC): 49.3 µM
TGI (CAKI-1 renal): 31.8 µM
TGI (CCRF-CEM leukemia): 59.1 µM
TGI (NCI/ADR-RES ovarian): > 100 µM
TGI (NCI-H460 lung): > 100 µM
TGI (ACHN renal): 35.8 µM
TGI (TK-10 renal): 33.1 µM
TGI (SK-MEL-5 melanoma): > 100 µM
TGI (SN12C renal): > 100 µM
TGI (RPMI-8226 leukemia): 45 µM
TGI (MCF7 breast): 35.1 µM
TGI (OVCAR-5 ovarian): 34.9 µM
TGI (HCT-15 colon): 39 µM
TGI (SNB-19 CNS): > 100 µM
TGI (HOP-62 NSCLC): 40.4 µM
